Here are results for one compound from patent US11826341B2, “Baicalein analogs for use in neuroprotection and regulation of immune reactivity” (THE HONG KONG POLYTECHNIC UNIVERSITY, priority 2021, dated 2023).

“Also recorded” adds a separate entry of the source.

One data set concerns retinal microglia. Put plainly: qPCR of activated microglia markers and pro-inflammatory cytokines in retina after ischemia/reperfusion. In kind it is in vivo, mice. Particulars: 100 μM.
Data set [1] has as its system primary mouse brain microglia. Put plainly: PI3K and NFkB immunostaining in LPS and ATP challenged microglia. In kind it is cell-based. Particulars: 10 μM; LPS and ATP challenged mouse microglial cells. The procedure: (§1) FIG. 5 Baicalein suppresses PI3K and NFkB pathway in both primary mouse brain microglia and human microglia HMC3 cell line in vitro. (A) Representative bright field images of primary mouse brain microglia and images immunostained with DAPI (blue), p85 PI3K (red) and p65 NFkB (green) antibody in LPS and ATP plus vehicle or 10 μM baicalein delivered group respectively. Scale bar=40 μm (B) Representative human microglia images immunostained with DAPI (blue), p85 PI3K (red) and p65 NFkB (green) antibody in LPS and ATP plus vehicle or 10 μM baicalein delivered group respectively. Error bar=SEM. *P<0.05; **P<0.01. Scale bar=100 μm.
(§2) To further understand if the effects of suppressing microglia activation and cytokines release are related with NFkB and PI3K pathway, we examine the performance of baicalein in primary mouse microglia and human microglial cell line HMC-3.

For data set [2], the system named is human microglia HMC3 cell line. Described as above. In kind it is cell-based. Particulars: 10 μM; LPS and ATP challenged human microglial cells. The procedure: as §1, §2
Another data set deals with purified mouse RGCs. Put plainly: Purified RGC culture survival. To be noted: 48 hours, vehicle 35.8+/−1.3%. In kind it is cell-based. As for the experimental part: (§3) (A) representative photomicrographs showing Brn-3a staining a whole-mounted retina from four weeks after ischemia injury in vehicle, 10 μM or 100 μM baicalein group; (B) bar graph quantifying the number of survived RGCs in 4 weeks post-injury retina from vehicle, 10 μM or 100 μM baicalein group; (C) bar graph the number of live primary RGC survival rate in vehicle, 1 μM baicalein group. Bar=20 μm. *P<0.05; **P<0.01 value was statistically analyzed by one-way ANOVA.
(§4) Example 1—Baicalein improves RGCs survival in vitro culture or after ischemia/reperfusion damages. To study the effect of baicalein on retinal neurons, we carried out in vitro RGC cultures and in vivo studies of RGCs survival in experimental models of retinal ischemia/reperfusion injury. RGC density dropped from 3,901+/−145 cells/mm^2 to 2,314+/−383 cells/mm^2 at 4 weeks following ischemia/reperfusion injury. […] Moreover, purified mouse RGCs were cultured with vehicle, 1 μM or 10 μM Baicalein for 48 hours.

In data set [3] the test system is ischemia/reperfusion mice. Put plainly: Optomotor response (OMR) after ischemia/reperfusion injury. In kind it is in vivo.
Experimental: (K) Graphs showing contrast sensitivity (CS) and (L) visual acuity (VA) of optomotor response (OMR) in mice received ischemia/reperfusion and intravitreal injections of vehicle, 10 μM or 100 μM baicalein. Error bar=SEM. *P<0.05; **P<0.01.
The next data set deals with HMC-3. The data set is described as follows: Intracellular calcium after ATP stimulation. In kind it is cell-based, human. Particulars: 10 μM pretreatment 24 hrs; 50 μM ATP stimulation.
Data set [4] concerns ischemia/reperfusion mice. Particulars: mouse, in vivo.
Experimental: The results of electroretinogram (ERG) and optomotor response (OMR) measurements were used to determine the changes of visual functions after ischemia/reperfusion damages. For ERG measurement, positive scotopic threshold response (pSTR), scotopic a- and b-wave, M-cone and 10 Hz flicker amplitudes were obtained from the three experimental groups (i.e. vehicle, 10 μM and 100 μM baicalein) at baseline, 1 wk, 2 wks and 4 wks post-ischemia/reperfusion injury (FIGS. 2A, 2B, 2C, 2D, 2E, 2F, 2G, 2H, 2I and 2J). […] At the same time, the electrical signals from M-cone and 10 Hz-flicker stimulus were also captured (FIGS. 2F, 2G, 2H, 2I and 2J).
For the next data set, the system named is RGCs. The data set is described as follows: RGC survival in vivo after retinal ischemia/reperfusion injury (Brn-3a whole-mount retina). Details: species or system mice. Particulars: 4 weeks after ischemia/reperfusion, injured control 2,314+/−383, uninjured 3,901+/−145. As for the experimental part:
as §3, §4

The subject of data set [5] is human microglia HMC3 cell line. Put plainly: Cytokine array of culture media after LPS and ATP challenge. It counts as cell-based. To be noted: 1 μM or 10 μM for 42 hours after 6 hours LPS and 30 mins ATP.
Experimental: (§5) (A) Quantification the averaged pixel density of selected cytokines produced by human microglia cell line HMC-3 culture. […] Error bar=SEM. *P<0.05; **P<0.01. Scale bar=100 μM. One-way ANOVA. […] After 6 hours LPS stimulation and additional 30 mins ATP challenge, vehicle, 1 μM or 10 μM baicalein was delivered to the culture media for an additional 42 hours. The culture media from different groups was collected for the cytokine array, while the cells were lysed for qPCR to identify the mRNA level.
A further data set concerns CD4+ T cells. The data set is described as follows: Flow cytometry of CD4+ T cells in retina and superior cervical lymph nodes after ischemia/reperfusion. It counts as in vivo, mice. To be noted: 100 μM.
The test system of data set [6] is human microglia HMC3 cell line. The data set is described as follows: qPCR of pro-inflammatory genes after LPS and ATP challenge. It counts as cell-based. To be noted: 1 μM or 10 μM for 42 hours after LPS and ATP.
Experimental: as §5
Setting [7] is: 100 μM weekly intravitreal, 4 weeks after ischemia.

Experimental for CD4+ T cells: (A) 1 wk representative flow images and (B) quantification of the CD4+ cell percentage in the retina at 1 wk and 4 wks timepoint. Flow cytometry quantification of frequencies of subsets of CD4+ T cells in the draining LNs of the eye taken from mice at 1 wk (C) and 4 wks (D) after acute ischemic injury in vehicle or 100 μM baicalein given group. Shown were percentages of CD4+ T cells that expressed IFN-γ, IL-17, IL-4, IL-10 or TGF-β among fresh-isolated total LN lymphocytes. […] Th1, Th2, Th17, and Treg cells, again were divided based on the expression profile of hallmark cytokines: IFN-γ (TH1), IL-4 (TH2), IL-10 (TH2), IL-17 (TH17), and TGF-β (Treg)^16.
Experimental for HMC-3: (A) Changes of [Ca^2+]i in cultured HMC-3 with pretreatment of vehicle or 10 μM baicalein for 24 hrs. […] (B) Quantification of [Ca^2]i levels in different treatment groups after stimulation (n=6 cultures/group, and 10-20 neurons were recorded from each group). […] To verify the effect of baicalein on the influence of microglia state, the measurement of intracellular calcium concentration [Ca2+]I was applied. After adding 50 μM ATP to microglial cells, the influx of [Ca2+]I was triggered immediately in naïve group.
Experimental for retinal microglia: Quantifications of qPCR assay showing the relative expression of (B) activated microglia markers and (C) pro-inflammatory cytokines in normal mice, and mice at 1 wk and 4 wks post ischemia/reperfusion retina from vehicle or 100 μM Ba given group. Error bar-SEM. *P<0.05.

For `O=c1cc(-c2ccccc2)oc2cc(O)c(O)c(O)c12` [baicalein, 5,6,7-trihydroxyflavone], in the data set with retinal microglia (retina 1- and 4-week post injury), the “mRNA levels of activated microglia markers Iba-1, YM-1 and Nox2” value was “relatively low mRNA levels”. Besides, the “pro-inflammatory cytokines CCL2, IL-1α (qPCR)” value in the data set on retinal microglia (retina, vs vehicle group) is recorded as “down-regulated”. Further, the “PI3K and NFkB pathway activation” value in [1] and in data set [2] was “effectively reduce” in each case. In addition, the RGC survival rate is listed as 42.0+/−1.2% in the data set with purified mouse RGCs (1 μM) and 41.1+/−1.9% with purified mouse RGCs (10 μM). The visual acuity result is given as “improvement” in data set [3] (10 μM intravitreal, after ischemia injury) and “improved” in [3] (setting [7]). For the same compound, the contrast sensitivity result in [3] (setting [7]) is on record as “improved”. Besides, in the data set with HMC-3, the “elevation of intracellular calcium [Ca2+]i” value was “delayed Ca^2+ influx with reduced magnitude; also recorded: suppressed effectively”. Besides, in data set [4], the “Scotopic ERG a wave and b wave (bipolar cells)” value was “protective effects”. Further, the results for the RGC density with RGCs (10 μM intravitreal injection day 1 after injury) and in the data set on RGCs (100 μM intravitreal injection day 1 after injury) were 3,480+/−197 cells/mm^2 and 3,604+/−137 cells/mm^2, respectively. In addition, the “release of pro-inflammatory factors (CCL2, Cxcl10, IL-1α, IL-10, TNFα, etc)” value in data set [5] is “largely draw the release of pro-inflammatory factors to the resting level”. Besides, the “IFNγ (TH1) CD4+ T cells in superior cervical LNs” value in the data set on CD4+ T cells (1 and 4 weeks after ischemic injury) is listed as “significantly inhibited”. The “IL-10 (TH2) expression in superior cervical LNs” value with CD4+ T cells (4-week post-injury) is “lower than that of vehicle-treated”. For the same compound, in the data set with CD4+ T cells (4-week time point), the “IL-4 (TH2) level in superior cervical LNs” value was “lower than vehicle group”. The “number of infiltrated T cells in the retina” value in the data set on CD4+ T cells (after ischemia/reperfusion injury) was “decrease”. Also, the IL-6 expression level result in [6] is reported as “significant suppression”. For the same compound, the “expression of IL-10 and TNFα” value in [6] (vs vehicle group) is listed as “dramatically dropped”. For the same compound, in data set [6] (vs vehicle group), the “mRNA fold changes of IL-1β and TNFα” value is “consistent anti-inflammation effects”.
